# Reference: EPA's ToxValDB 9.5 (doi:10.2903/j.efsa.2006.85r)
# Key:
# [1] = test system: Typhlodromus pyri; assay: LR50; higher = less toxic; conditions: not reported; mortality
# [2] = test system: Rattus norvegicus
# [3] = test system: Anas platyrhynchos
# [4] = test system: Tagia sp.; conditions: acute; duration: 14 days; mortality
# [5] = test system: Lepomis macrochirus; conditions: acute; duration: 96 hours; mortality
# [6] = test system: Pimephales promelas; conditions: chronic/long-term; duration: 34 days; growth
# [7] = test system: Apis mellifera; conditions: acute; duration: 48 hours; oral; unspecified; mortality
# [8] = test system: Daphnia magna; conditions: chronic/long-term; duration: 21 days
# [9] = test system: Canidae; conditions: oral, Dog Other, clinical chemistry
smiles,measurement,setting,value
CCOP(=S)(OCC)Oc1cc(C)nc(C(C)C)n1 [Diazinon],LR50,[1],0.153 g/ha
same,NOAEL,"[2]; acute, oral, clinical chemistry",2.5 mg/kg-day
same,LD50,"[2]; acute, oral, mortality",1130 mg/kg-day
same,NOEC,"[2]; reproduction developmental, reproduction",0.65 mg/kg-day
same,LD50,"[3]; acute, oral, unspecified, mortality",1.44 mg/kg
same,NOEL,[3]; reproductive,1.2 mg/kg-day
same,LC50,"[3]; short-term, duration: 8 days, oral, feed, mortality",8 mg/kg-day
same,LC50,[4],65 mg/kg
same,NOEL,[4],6.15 mg/kg
same,LC50,[5],0.27 µg/mL
same,NOEC,[6],0.092 mg/L
same,LD50,[7],0.09 µg/piece
same,NOEC,[8],0.00017 mg/L
same,NOAEL,"[9]; chronic, duration: 52 weeks",0.02 mg/kg-day
same,NOAEL,"[9]; subchronic, duration: 90 days",0.02 mg/kg-day
